Data on 25 compounds can be found in US7282507B2, “Indole derivatives as selective androgen receptor modulators (SARMS)” (Janssen Pharmaceutica N.V., priority 2004, dated 2007).

By inhibition is commonly meant the change of the read-out against control, counted positive when it falls. In general, EC50 refers to the midpoint of the concentration-response curve. High values mean weaker potency, low ones greater potency. One may read the IC50 as the midpoint of a concentration-inhibition curve. High values mean a need for much substance, low ones inhibition by little substance.

“And” between values parts separate entries of the source, which are not always exact repeats. Equal entries are not always repeated.

Experiment [1] relates to testosterone-enhanced ventral prostate and seminal vesicle weights. The experiment can be described thus: Ventral Prostate and Seminal Vesicle Weight in vivo Assay. Also: key: 'active' if the non weight adjusted prostate weight was ≦40 mg or the % Inhibition prostate weight, body weight adjusted was ≧40% @ 2 mg/day dosage; ID50's, if determined, of ≦15 mg/day also indicated an 'active' compound; listed herein as 'inactive' as they did not meet the specified criteria defined above. Conditions: immature castrated male Sprague Dawley rats, once daily for five days, usually orally 40 mg/kg, with testosterone propionate 2 mg/kg s.c. Details: species or system rat. The method, then:
Immature (approximately 50 g) castrated male Sprague Dawley rats (Charles River) were treated once daily for five days with test compound (usually given orally at 40 mg/kg in a volume of 0.3 mL, in 30% cyclodextrin or 0.5% methylcellulose vehicle) and with testosterone propionate (given subcutaneously by injection at the nape of the neck at 2 mg/kg, in a volume of 0.1 mL in sesame oil). On the sixth day, the rats were euthanized by asphyxiation in carbon dioxide. Ventral prosatates and seminal vesicles were removed and their wet weights determined.
A test compound was said to be “active” if the non weight adjusted prostate weight was ≦40 mg or the % Inhibition prostate weight, body weight adjusted was ≧40% @ 2 mg/day dosage.

Experiment [2] concerns the target T1, androgen receptor (AdEasy+rAR, L929 cells) (Rattus norvegicus, UniProt P15207).
T1 construct: expressed in transfected cells; host or cells: L929 cells transduced with adenovirus AdEasy+rAR
T1 sequence (P15207 1-902): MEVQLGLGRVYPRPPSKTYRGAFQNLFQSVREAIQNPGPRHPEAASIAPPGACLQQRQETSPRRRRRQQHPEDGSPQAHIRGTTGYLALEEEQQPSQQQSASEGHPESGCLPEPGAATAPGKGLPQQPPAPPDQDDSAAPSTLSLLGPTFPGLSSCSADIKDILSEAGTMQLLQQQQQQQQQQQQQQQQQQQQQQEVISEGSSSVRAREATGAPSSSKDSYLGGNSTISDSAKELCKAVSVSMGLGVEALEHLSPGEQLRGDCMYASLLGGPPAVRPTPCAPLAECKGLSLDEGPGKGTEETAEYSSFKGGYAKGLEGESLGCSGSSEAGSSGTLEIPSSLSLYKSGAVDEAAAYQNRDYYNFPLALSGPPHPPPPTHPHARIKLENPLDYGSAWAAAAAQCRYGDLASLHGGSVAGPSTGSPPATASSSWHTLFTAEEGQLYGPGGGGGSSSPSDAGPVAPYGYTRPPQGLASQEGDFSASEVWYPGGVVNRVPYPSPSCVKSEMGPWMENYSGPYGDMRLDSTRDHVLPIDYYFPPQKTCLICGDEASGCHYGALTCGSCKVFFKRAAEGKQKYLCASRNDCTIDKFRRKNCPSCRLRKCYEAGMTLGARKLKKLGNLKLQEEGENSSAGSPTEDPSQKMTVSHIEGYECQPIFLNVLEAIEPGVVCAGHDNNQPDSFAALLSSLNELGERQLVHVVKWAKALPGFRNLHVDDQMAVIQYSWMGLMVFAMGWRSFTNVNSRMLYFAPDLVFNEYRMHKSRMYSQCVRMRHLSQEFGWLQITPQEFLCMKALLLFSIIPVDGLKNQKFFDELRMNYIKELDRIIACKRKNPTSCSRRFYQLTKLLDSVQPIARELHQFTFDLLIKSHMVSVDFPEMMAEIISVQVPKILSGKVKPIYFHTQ
Kind of experiment: L929 Androgen Receptor Functional Assay, Adenovirus Transduction. In kind it is cell-based. Conditions: for % Activity, L929 androgen receptor functional assay / EC50: agonist testing; for % Inhibition, L929 androgen receptor functional assay: antagonist testing with R1881, 3000 nM; for inhibition at 3 µM: L929, antagonist testing with R1881, 3000 nM; for IC50: antagonist testing with R1881. The method, then: L929 cells were plated in 96-well plates at 20,000 cells per well, in DMEM/F12 (GIBCO) containing 10% (v/v) charcoal-treated fetal bovine serum (Hyclone) and lacking phenol red. The plates were then incubated overnight at 37° C. in 5% (v/v) humidified CO2.
Test compound dilutions were prepared in 100% (v/v) DMSO, if necessary. Each dilution was made to 1250× the final desired assay concentration.
First, 2 mL of DMEM/F12 lacking phenol red was pipetted into the wells of a 2-mL 96-well assay block. Next, 4 μL of the 1250× test compound dilutions were pipetted into each well of the assay block. The mixtures within the well were then carefully mixed by pipette.
In a 15 mL or 50 mL sterile centrifuge tube, a 2.5 nM (2.5×) dilution of R1881 (methyl-trienolone) in DMEM/F12 lacking phenol red was prepared.
In a second 15 mL or 50 mL centrifuge tube a solution containing an equal volume of DMEM to the first and an equal volume of 100% (v/v) DMSO to the volume of R1881 used in the first tube was prepared.
In a 15 mL or 50 mL sterile centrifuge tube, a dilution in DMEM/F12 of the adenovirus AdEasy+rAR at an moi of 1:500 per well was prepared.
The medium was removed from the 96-well plates by inversion and dried, inverted, very briefly. As soon as possible after medium removal, 40 μL of the diluted unlabeled test compound was added to each well, in duplicate. To each well designated for antagonist testing was added 40 μL of the 2.5 nM R1881 dilution to the wells for antagonist testing. To each well designated for agonist testing was added 40 μL of the DMSO dilution. Then 20 μL of the diluted adenovirus were added to all wells. The plates were incubated for 48 hours at 37° C. in 5% (v/v) humidified CO2.
To each well was added 100 μL of Steady-Glo luciferase assay substrate (Promega) and the plates were placed on a rotary shaker for 1 min. The plates were then incubated at room temperature in the dark for one hour. The contents of each well were then transferred to a white microtiter plate (Packard) and read on a Luminoskan Ascent (Thermo Lab Systems).
L929 AR percent activity was determined by testing dilutions of the test compound using a concentration of 3000 nM unless otherwise noted. L929 percent inhibition was determined by testing dilutions of the test compound using a concentration of 3000 nM. […] Luciferase activity per well were measured and EC50s and IC50s determined by linear regression.

Turning to `CCSCC(C)(O)c1cc2cc(C#N)c(C(F)(F)F)cc2[nH]1` (stereo not drawn) [Compound 218, 2-(2-Ethylsulfanyl-1-hydroxy-1-methyl-ethyl)-6-trifluoromethyl-1H-indole-5-carbonitrile], the “active / inactive: inhibition of testosterone-enhanced prostate weight” value (shortened to “active / inactive: inhibition”) in experiment [1] is “inactive”. Also, the “% Activity, L929 androgen receptor functional assay” value (“% Activity” for short) in experiment [2] (3000 nM) is 0%. For the same compound, the “% Inhibition, L929 androgen receptor functional assay” value in experiment [2] (3 µM) is 62%.

As for `CC[S+]([O-])CC(O)c1cc2cc([N+](=O)[O-])c(C(F)(F)F)cc2[nH]1` (mixture of isomers) [Compound 180], the “active / inactive: inhibition” value in experiment [1] is “inactive”. Further, the “% Activity” value in experiment [2] (3000 nM) came out at 2%.

On to `CCS(=O)(=O)CC(C)(O)c1cc2cc(C#N)c(C(F)(F)F)cc2n1C` (racemic) [Compound 240], for which the “active / inactive: inhibition” value in experiment [1] is “inactive”. Also, the “% Activity” value in experiment [2] (3000 nM) stood at 0%.

`CC(O)(CSCc1ccco1)c1cc2cc([N+](=O)[O-])c(C(F)(F)F)cc2[nH]1` (racemic) [Compound 198]: the “active / inactive: inhibition” value in experiment [1] was “inactive”. Besides, in experiment [2] (3000 nM), the “% Activity” value is listed as 7%.

`CCCSCC(C)(O)c1cc2cc(Cl)c(C(F)(F)F)cc2[nH]1` (racemic) [Compound 196]: the “active / inactive: inhibition” value in experiment [1] is “inactive”. Also, in experiment [2] (3000 nM), the “% Activity” value turned out to be 13%.

On to `CSCCC(C)(O)c1cc2cc(Cl)c(C(F)(F)F)cc2[nH]1` (racemic) [Compound 51], for which the “active / inactive: inhibition” value in experiment [1] was “inactive”. The “% Activity” value in experiment [2] (3000 nM) came out at 2%.

On to `CCSCC(C)(O)c1cc2cc([N+](=O)[O-])c(C(F)(F)F)cc2[nH]1` (racemic) [Compound 221], for which the “active / inactive: inhibition” value in experiment [1] was “inactive”. Further, the “% Activity” value in experiment [2] (3000 nM) is listed as −1%.

For `CC(O)(CS(=O)(=O)CC(F)(F)F)c1[nH]c2cc([N+](=O)[O-])c(C(F)(F)F)cc2c1Cl` (stereo not drawn) [Compound 207], the “active / inactive: inhibition” value in experiment [1] is on record as “active”. In addition, in experiment [2], the inhibition at 3 µM was 101%; the EC50 is above 8000 nM; the IC50 came out at 492 nM; the “% Inhibition, L929 androgen receptor functional assay” value amounted to 101%. In addition, the “% Activity” value in experiment [2] (3000 nM, 3 µM) is 1% and −1%.

With `CC(O)(CS(=O)(=O)CC(F)(F)F)c1cc2cc([N+](=O)[O-])c(C(F)(F)F)cc2[nH]1` (racemic) [Compound 208], the “active / inactive: inhibition” value in experiment [1] is on record as “active”. The “% Activity” value in experiment [2] (3000 nM) is 1%.

With `CC[S+]([O-])CC(C)(O)c1cc2cc(C(F)(F)F)c([N+](=O)[O-])cc2[nH]1` (mixture of isomers) [Compound 230], in experiment [1], the “active / inactive: inhibition” value is reported as “active”. In experiment [2] (3000 nM), the “% Activity” value was determined as 0%.

On to `CCSCC(O)(CC)c1cc2cc(C#N)c(C(F)(F)F)cc2[nH]1` (stereo not drawn) [Compound 223], for which the “active / inactive: inhibition” value in experiment [1] was “active”. Also, in experiment [2], the inhibition at 3 µM is 100%, the EC50 is above 8000 nM and the IC50 stood at 277 nM. Moreover, in experiment [2] (@ 8000 nM), the “% Activity” value was 0 @ 8000 nM %.

As to `CCSCC(O)c1cc2cc(C#N)c(C(F)(F)F)cc2[nH]1` (racemic) [Compound 410], the “active / inactive: inhibition” value in experiment [1] is “inactive”.

For the compound `CCSCC(C)(O)c1cc2cc(Cl)ccc2[nH]1` (racemic) [Compound 353], the “active / inactive: inhibition” value in experiment [1] was “inactive”.

Regarding `CCSCC(C)(O)c1cc2cc(C#N)c(C)c(I)c2[nH]1` (racemic) [Compound 415], the “active / inactive: inhibition” value in experiment [1] was “inactive”.

Take `C=Cc1c(C(C)(C)O)[nH]c2cc(C(F)(F)F)c([N+](=O)[O-])cc12` [Compound 281]: the “active / inactive: inhibition” value in experiment [1] is “inactive”.

On to `CSC(C)(O)c1cc2cc([N+](=O)[O-])c(C(F)(F)F)cc2[nH]1` (racemic) [Compound 267], for which, in experiment [1], the “active / inactive: inhibition” value was “inactive”. In addition, the “% Activity” value in experiment [2] (3000 nM, 3 µM) was −5% and 0%.

With `CSCn1c(C(C)(O)C(F)(F)F)cc2cc(C#N)c(C(F)(F)F)cc21` (racemic) [Compound 333], in experiment [1], the “active / inactive: inhibition” value is reported as “active”.

For `CCSCC(O)(CC)c1cc2cc(Cl)c(C(F)(F)F)cc2[nH]1` (racemic) [Compound 181], the “active / inactive: inhibition” value in experiment [1] is given as “active”.

For the compound `CC(O)(c1cc2cc(C#N)c(C(F)(F)F)cc2[nH]1)C(F)(F)F` (stereo not drawn) [Compound 335, 2-(2,2,2-Trifluoro-1-hydroxy-1-methyl-ethyl)-6-trifluoromethyl-1H-indole-5-carbonitrile], the “active / inactive: inhibition” value in experiment [1] is “active”.

As to `O=[N+]([O-])c1cc2cc(C3(O)CCSC3)[nH]c2cc1C(F)(F)F` (racemic) [Compound 18], the “active / inactive: inhibition” value in experiment [1] was “inactive”.

With `CCSCC(C)(O)c1cc2cc(C#N)c(Cl)cc2[nH]1` (racemic) [Compound 224], in experiment [1], the “active / inactive: inhibition” value is “active”.

Regarding `CCSCC(C)(O)c1cc2cc([N+](=O)[O-])c(C(F)(F)F)cc2[nH]1` (racemic) [Compound 153], the “active / inactive: inhibition” value in experiment [1] is “inactive”.

With `CCSCC(C)(O)c1cc2cc(C#N)ccc2[nH]1` (racemic) [Compound 403], in experiment [1], the “active / inactive: inhibition” value was “inactive”.

Regarding `CC(C)(O)c1cc2cc(Br)ccc2[nH]1` [Compound 294], the “active / inactive: inhibition” value in experiment [1] was “inactive”.

With `CCSCC(C)(O)c1cc2cc(C#N)c(C(F)(F)F)cc2n1CC(F)(F)F` (racemic) [Compound 237], in experiment [1], the “active / inactive: inhibition” value is listed as “active”.
